# Biological target: human M3 receptors (Homo sapiens, UniProt P20309)
# Assay type: binding
# Details: human clonal line TE671/RD
# Chain of human M3 receptors (P20309 whole entry): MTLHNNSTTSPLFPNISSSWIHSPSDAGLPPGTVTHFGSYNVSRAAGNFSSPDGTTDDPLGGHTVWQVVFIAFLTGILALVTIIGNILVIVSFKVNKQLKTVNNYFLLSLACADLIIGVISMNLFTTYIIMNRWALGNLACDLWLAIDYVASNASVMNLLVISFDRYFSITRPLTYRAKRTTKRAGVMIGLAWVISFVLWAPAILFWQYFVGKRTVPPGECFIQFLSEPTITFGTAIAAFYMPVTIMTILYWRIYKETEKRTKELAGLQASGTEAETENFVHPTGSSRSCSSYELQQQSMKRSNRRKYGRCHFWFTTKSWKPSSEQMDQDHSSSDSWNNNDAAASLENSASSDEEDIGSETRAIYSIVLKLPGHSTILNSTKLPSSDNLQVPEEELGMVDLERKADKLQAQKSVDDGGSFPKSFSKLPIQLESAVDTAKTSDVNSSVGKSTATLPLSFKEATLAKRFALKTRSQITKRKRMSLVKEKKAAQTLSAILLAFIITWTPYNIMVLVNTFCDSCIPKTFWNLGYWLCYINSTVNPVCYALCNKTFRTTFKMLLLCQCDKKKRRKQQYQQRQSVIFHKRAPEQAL
row,SMILES,ability to inhibit [3H]QNB binding at muscarinic sites
1,"O=C(c1cc2ccccc2o1)N1CC(c2cccnc2)C2C1C1CCN2CC1 (stereo not drawn) [Compound 1, 5-(Benzofuran-2-ylcarbonyl)-3-pyridin-3-yl-1,5-diazatricyclo[5.2.2.0<2,6>]undecane]",None of the compounds was able to inhibit [^3H]QNB binding
2,"COc1cccc2cc(C(=O)N3CC(c4cccnc4)C4C3C3CCN4CC3)oc12 (stereo not drawn) [Compound 2, 5-(7-Methoxybenzofuran-2-ylcarbonyl)-3-pyridin-3-yl-1,5-diazatricyclo[5.2.2.0<2,6>]undecane]",None of the compounds was able to inhibit [^3H]QNB binding
3,"O=C(c1c[nH]c2ccccc12)N1CC(c2cccnc2)C2C1C1CCN2CC1 (stereo not drawn) [Compound 4, 5-(1H-Indol-3-ylcarbonyl)-3-pyridin-3-yl-1,5-diazatricyclo[5.2.2.0<2,6>]undecane]",None of the compounds was able to inhibit [^3H]QNB binding

# From patent US7732607B2 (priority 2005, dated 2010)
